What was measured:
in vivo = details: SOD1, mouse, spinal cord/plasma, ip, 200 mg/kg
[1] = system: mouse model (anti-epileptic effect); details: approximately 260-320 mg/kg intraperitoneal; cited from earlier work
SOD1^G93A mice = test: Survival study in SOD1 G93A mice (neurological score, survival); type: in vivo, mouse; details: for Expected Days, Sulfasalazine: predicted from vehicle cohort if no effect
Description: High-copy SOD1^G93A transgenic mice were derived from the B6SJL-TgN(SOD1G93A)1Gur strain, obtained from The Jackson Laboratory (Bar Harbor, Me.) and originally produced by Gurney, e.g. Gurney et al., Science 264: 1772-1775 (1994). Animal experiments with the SOD1 model were performed at ALS Therapy Development Institute (herein “ALS-TDI”; Cambridge, Mass.). All mice were genotyped to verify copy number of the SOD1 transgene. Animal handling and study protocols were as previously described by ALS-TDI, e.g. Scott et al., Amyotroph. Lateral Scler. 9: 4-15 (2008).
Groups were balanced with respect to gender and body weight within gender. In addition, groups were age-matched and littermate-matched. […] Each cohort of was balanced between males and females.
(§1) 5 mL of 0.1 N NaOH was added and the tube gently sonicated. Approximately 140 μL of 1 N HCl was then added to bring the pH to 8.00. The resulting 20 mg/mL solution was delivered by intraperitoneal injection at 10 ml/kg. Vehicle treated mice were administered saline.
Neurological scores were assessed daily from day 50 for both hind legs. The neurological score was based on a scale of 0 to 4. Criteria used to assign each score level are from Scott et al., Amyotroph. Lateral Scler. 9: 4-15 (2008) and are described in Table 2.
The date of definitive neurological disease was the day that the mouse first scored a “2” on the Neurological Score. Upon reaching a score of Neurological Score of “4”, mice were euthanized and the date of death was recorded.
Survival after onset of definitive neurological disease is defined as the total number of days the mice lived after reaching definitive neurological disease (Neurological Score of 2) and before death (Neurological Score of 4). Survival after onset of definitive neurological disease was analyzed in two ways.
The first day that a neurological score was determined was day 50 of age; measurements were collected daily afterwards until death.
The three categories were: (1) days spent before definitive neurological disease, e.g. with a neurological score of 0 or 1; (2) days spent during definitive neurological disease, e.g. with a neurological score of 2 or 3; and (3) days at death, e.g. with a neurological score of 4. By definition, mice were only in the dead state for 1 day, as they were euthanized upon reaching a neurological score of 4; this category was included as a positive control to ensure the integrity of the data and analysis.

[2] = system: activated microglial cells; test: Quantitative immunohistochemistry of microglial activation (anti-F4/80) in the spinal cord of SOD1 mice; type: in vivo, mouse; details: Microglia
Description: Two ages of mice were chosen for this analysis: day 85, when SOD1 mice show no overt sign of the ALS-like symptomology, and day 100, when SOD1 mice typically begin displaying the first signs of ALS-like symptomology, such as partial collapse of leg extension towards lateral midline (weakness) or trembling of hind legs during a tail suspension test. For the immunohistochemical studies, a total of 48 mice were divided into 6 cohorts of 8 mice each (4 females and 4 males) as shown in Table 5.
as §1
Mice were sacrificed by CO2 asphyxiation according to IACUC approved protocols. The spinal cord was extruded with cold PBS into a bath of cold PBS from the vertebral column of mice using an 18 gauge needle inserted in the sacral vertebral column to a friction fit. Upon extrusion, the spinal cord tissue was rinsed and dropped into 4% paraformaldehyde for 24 hours at room temperature (RT, approximately 25° C.). The tissue was then transferred to a 1× phosphate buffered saline (PBS) solution. Samples were then processed by TissueTek processors for paraffin embedding. Spinal cord samples were then embedded in paraffin blocks and oriented for transverse sectioning. Spinal cord samples were sectioned at 10 microns thickness. Three representative sections were cut from lumbar, thoracic and cervical regions of the spinal cord. Samples were pretreated with Pronase for 20 minutes at RT, followed by treatment with 3% H2O2 for 12 minutes at RT. Horse serum was added to 2% and samples incubated for 20 minutes at RT. The samples were then incubated with the primary antibody (Anti-xCT; purchased from Abcam (Cambridge, Mass.); Catalog #Ab37185; diluted 1:500 in PBS) overnight at 4° C. The secondary antibody (Biotin labeled goat anti-rabbit IgG; 1:500 dilution in PBS) was then added and the reaction incubated overnight at RT. Reaction products were developed using the Vector ABC system (Vector Labs, Burlingame, Calif.) using avidin-conjugated horseradish peroxidase. xCT expression was visualized by addition of the chromogenic substrate DAB (3,3′-diaminobenzidine) for 10 minutes at RT. Each stained section was imaged at objectives: 4×, 10×, 20× and 40×. For each objective image, light parameters were optimized and kept consistent across all sections. For SLC7A11 analysis, all images that were captured at 20× were then imported into ImageJ freeware (NIH, Bethesda, Md.). A maximum entropy threshold algorithm was applied to all images in a completely blinded fashion to filter out all pixels that were not stained as DAB positive. The key parameter measured and reported is area fraction. Area fraction is the proportion of total pixels that are DAB positive in the ventral horn of the spinal cord. All statistical analyses were performed using JMP® 7.0, SAS Institute, Inc. Area fraction was compared with respect to treatment using 1-way ANOVA analysis, with a p-value of 0.05 considered significant.
The same test mice, spinal cord preparations and methods of analysis used in the neuroinflammatory study were identical to those used in the xCT quantitation study. Two neuroinflammatory cell populations were quantitated: (1) activated microglial cells using an antibody to the F4/80 antigen, and (2) activated astrocytes, using an antibody to the GFAP antigen. For each objective image, light parameters were optimized and kept consistent across all sections. Images that were captured at 20× were then imported into ImageJ freeware (NIH, Bethesda, Md.). A maximum entropy threshold algorithm was applied to all images in a completely blinded fashion to filter out all pixels that were not stained as DAB positive. 20× images were analyzed in a blinded fashion and mean area fraction occupied by stain was tabulated. […]

[3] = sulfasalazine vs vehicle, SOD1 mice, 200 mg/kg IP two times per day

Compound: O=C(O)c1cc(/N=N/c2ccc(S(=O)(=O)Nc3ccccn3)cc2)ccc1O [Sulfasalazine, 2-hydroxy-5-[(E)-2-{4-[(pyridin-2-yl)sulfamoyl]phenyl}diazen-1-yl]benzoic acid]
- Kp at 15 min (in vivo): 0.16
- duration of anti-epileptic effect [1]: disappears by three hours after administration
- increase of median absolute survival (SOD1^G93A mice; SOD1 mice vs vehicle, 200 mg/kg IP two times per day, p=0.07): 3.5 days
- effect on time of disease onset (SOD1^G93A mice; SOD1 mice, 200 mg/kg IP two times per day): no statistical effect
- Expected Days, Sulfasalazine (SOD1^G93A mice; Total Observations): 2050 days
- Observed Days Minus Expected Days (SOD1^G93A mice; before definitive disease onset (neurological score 0 or 1)): no significant difference
- Observed Days Minus Expected Days (SOD1^G93A mice; death (neurological score 4)): no significant difference
- Observed Days, Sulfasalazine (SOD1^G93A mice; death (neurological score 4), cohort n=27): 27 days
- Expected Days, Sulfasalazine (SOD1^G93A mice; death (neurological score 4)): 27 days
- Absolute Change in Mean Day of Death (SOD1^G93A mice; [3]): 3.7 days
- Absolute Change in Mean Day of Definitive Neurological Disease (SOD1^G93A mice; [3]): −1.2 day
- Absolute Change in Total Days of Survival after Onset of Definitive Disease (SOD1^G93A mice; [3]): 4.9 days
- Percent Change in Mean Day of Death (SOD1^G93A mice; [3]): 2.9%
- Percent Change in Mean Day of Definitive Neurological Disease (SOD1^G93A mice; [3]): −1.0%
- Percent Change in Total Days of Survival after Onset of Definitive Disease (increased lifespan after onset) (SOD1^G93A mice; sulfasalazine vs vehicle, SOD1 mice, 200 mg/kg IP two times per day, 200 mg/kg): 39%
- Expected Days, Sulfasalazine (SOD1^G93A mice; total days before definitive disease onset (neurological score 0 or 1), normalized for number of animals): 1722 days
- Expected Days, Sulfasalazine (SOD1^G93A mice; total days in definitive neurological disease (neurological score 2 or 3)): 301 days
- Decreased activation in sulfasalazine treated SOD1 vs. vehicle treated SOD1 mice ([2]; Cervical, Day 85, p < 0.01): significantly decreased
- Decreased activation in sulfasalazine treated SOD1 vs. vehicle treated SOD1 mice ([2]; Cervical, Day 85, p < 0.01, listed as sulfasalazine): Strong decrease
- Decreased activation in sulfasalazine treated SOD1 vs. vehicle treated SOD1 mice ([2]; Cervical, Day 100): trend towards decreased
- Decreased activation in sulfasalazine treated SOD1 vs. vehicle treated SOD1 mice ([2]; Cervical, Day 100, listed as sulfasalazine): Trend
- Decreased activation in sulfasalazine treated SOD1 vs. vehicle treated SOD1 mice ([2]; Combined (cervical, thoracic, lumbar), Day 85): Trend
- Decreased activation in sulfasalazine treated SOD1 vs. vehicle treated SOD1 mice ([2]; Combined (cervical, thoracic, lumbar), Day 100): No decrease
- Decreased activation in sulfasalazine treated SOD1 vs. vehicle treated SOD1 mice ([2]; Lumbar, Day 85): reduced microglial activation in the lumbar region in SOD1 mice, although this effect did not reach statistical significance
- Decreased activation in sulfasalazine treated SOD1 vs. vehicle treated SOD1 mice ([2]; Lumbar, Day 85, listed as sulfasalazine): Trend
- Decreased activation in sulfasalazine treated SOD1 vs. vehicle treated SOD1 mice ([2]; Lumbar, Day 100): did not affect
- Decreased activation in sulfasalazine treated SOD1 vs. vehicle treated SOD1 mice ([2]; Lumbar, Day 100, listed as sulfasalazine): No decrease
- Decreased activation in sulfasalazine treated SOD1 vs. vehicle treated SOD1 mice ([2]; Thoracic, Day 85): No decrease
- Decreased activation in sulfasalazine treated SOD1 vs. vehicle treated SOD1 mice ([2]; Thoracic, Day 100): No decrease

Reference: patent US10398713B2, “Compositions and methods for the treatment of neurodegenerative and other diseases” (Glialogix, Inc., priority 2013, dated 2019)
